Data as given in PMC11078990, “Identification and characterization of small molecule inhibitors of the LINE-1 retrotransposon endonuclease” (Nature Communications, 2024).
Where “and” joins values, the source holds several entries; their conditions need not be identical. Identical values can stand only once. Entries after “also recorded” stand apart in the source; their conditions may differ. Like-named read-outs stand apart in the source and are kept apart here.

What was measured:
[1] = test system: senescent LF1 human diploid fibroblasts (IFN-I and Aging gene sets); assay: RNA-seq / Gene Set Enrichment Analysis of senescent cultures; assay type: cell-based; conditions: senescent cultures treated 1 month beginning at 3 months senescence
HeLa Tet-On cells = conditions: human, 48 h
[2] = molecular target: L1 EN (LINE-1 retrotransposon endonuclease domain) (Homo sapiens, UniProt O00370, N5T); assay: Fluorescent oligonucleotide EN nicking activity assay; assay type: biochemical
[3] = test system: DNA fragmentation (comet tail length) in HeLa Tet-On cells expressing EN domain; assay: Neutral comet assay, EN domain-only constructs; assay type: cell-based, human; conditions: EN domain-only construct, neutral comet assay, normalised to WT
APE1 [4] = molecular target: T1, APE1 (Homo sapiens, UniProt P27695); assay: APE1 fluorescent oligonucleotide activity assay (abasic site substrate); assay type: biochemical; conditions: for activity at 25 µM: inhibitors at 25 μM, relative to 0 μM inhibitor control, mean ± s.d., 3 independent experiments, read-out: APE1 activity (%)
T1 construct: purchased New England Biolabs (NEB) M0282S

L1 retrotransposition = assay: HeLa dual-luciferase L1 retrotransposition assay; assay type: cell-based, human; conditions: for L1 retrotransposition, average: average of 4 replicates, Figure 4b; for Luciferase (retrotransposition), replicates: Replicates 1-4
[5] = test system: senescent LF1 human diploid fibroblasts (IL6, IL1β, CCL2, IFNα, MMP3); assay: RT-qPCR of inflammatory markers in replicatively senescent fibroblasts; assay type: cell-based
[6] = test system: L1-induced DNA damage in HeLa Tet-On cells (full-length L1); assay: γ-H2AX immunofluorescence assay, full-length L1 constructs; assay type: cell-based, human
[7] = test system: substrate oligonucleotide used in the EN activity assay; assay type: binding; parameters: key to Binding Detected? (Y/N): Binding Detected? (Y/N); Binding Detected? (Y/N)
[8] = test system: L1-induced DNA damage in HeLa Tet-On cells (EN domain only); assay: γ-H2AX immunofluorescence assay, EN domain-only constructs; assay type: cell-based, human
EN = EN (Homo sapiens, UniProt O00370, N5T); assay type: biochemical
APE1 [9] = molecular target: T1, APE1; conditions: read-out: Ki for APE1; cited from earlier work
[10] = [Inhibitor] 5 μM, technical replicates 1-3, Fig. 2b source data, 5 µM
[11] = [Inhibitor] 5 μM, technical replicates 1-3, Fig. 2b source data, read-out: EN activity, percent of no inhibitor control
[12] = [Inhibitor] 25 μM, technical replicates 1-3, Fig. 2b source data, 25 µM
[13] = [Inhibitor] 25 μM, technical replicates 1-3, Fig. 2b source data, read-out: EN activity, percent of no inhibitor control
[14] = [Inhibitor] 50 μM, technical replicates 1-3, Fig. 2b source data, 50 µM
[15] = [Inhibitor] 100 μM, technical replicates 1-3, Fig. 2b source data, 100 µM
[16] = compound at 25 μM, average of 3 replicates
[17] = Figure 4a Graph 3, 50μM, 0μM average 17.91
[18] = Figure 4a Graph 1, 25 μM, 0 μM average 9.554

L1 EN (LINE-1 retrotransposon endonuclease domain), sequence (O00370 1-239 N5T): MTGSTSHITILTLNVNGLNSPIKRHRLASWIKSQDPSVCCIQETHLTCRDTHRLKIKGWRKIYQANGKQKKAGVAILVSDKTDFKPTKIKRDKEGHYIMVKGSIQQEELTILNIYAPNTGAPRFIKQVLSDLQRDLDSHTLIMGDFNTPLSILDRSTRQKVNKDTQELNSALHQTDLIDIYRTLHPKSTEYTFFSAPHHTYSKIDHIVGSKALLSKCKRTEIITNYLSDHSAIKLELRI
EN, sequence (O00370 1-239 N5T): as above

## COc1ccc2c(c1)C(=O)N(CCc1ccc(S(=O)(=O)NC(=O)NC3CCCCC3)cc1)C(=O)C2(C)C [AD12]
[1]
  Expression of IFN-I gene set and aging gene set (RNA-seq, GSEA): decreased expression
HeLa Tet-On cells; 50 μM
  PrestoBlue (viability), average: 5.992
[2]; [10]
  EN activity, percent of no inhibitor control: 77.035% and 74.8653%
[2]; [11]
  remaining activity at 5 µM: 78.7%
[2]; [12]
  EN activity, percent of no inhibitor control: 81.0185% and 81.0517%
[2]; [13]
  remaining activity at 25 µM: 80.7%
[2]; [14]
  EN activity, percent of no inhibitor control: 93.0387% and 96.7449% and 76.3025%
[2]; [15]
  EN activity, percent of no inhibitor control: 74.7453% and 98.1517% and 74.2286%
[2]; [Inhibitor] 250 μM, technical replicates 1-3, Fig. 2b source data, 250 µM
  EN activity, percent of no inhibitor control: 79.2639% and 68.0005%
[2]; [Inhibitor] 250 μM, technical replicates 1-3, Fig. 2b source data, read-out: EN activity, percent of no inhibitor control
  remaining activity at 250 µM: 61.9%
[2]; [Inhibitor] 500 μM, technical replicates 1-3, Fig. 2b source data, 500 µM
  EN activity, percent of no inhibitor control: 55.3249% and 49.2356%
[2]; [Inhibitor] 500 μM, technical replicates 1-3, Fig. 2b source data, read-out: EN activity, percent of no inhibitor control
  remaining activity at 500 µM: 62.1%
[2]; [Inhibitor] 750 μM, technical replicates 1-3, Fig. 2b source data, 750 µM
  EN activity, percent of no inhibitor control: 29.8392% and 18.9487%
[2]; [Inhibitor] 750 μM, technical replicates 1-3, Fig. 2b source data, read-out: EN activity, percent of no inhibitor control
  remaining activity at 750 µM: 18%
[2]; [Inhibitor] 1000 μM, technical replicates 1-3, Fig. 2b source data, 1000 µM
  EN activity, percent of no inhibitor control: 13.0331% and 19.9958%
[2]; [Inhibitor] 1000 μM, technical replicates 1-3, Fig. 2b source data, read-out: EN activity, percent of no inhibitor control
  remaining activity at 1000 µM: 20.4%
[2]; [Inhibitor] 1500 μM, technical replicates 1-3, Fig. 2b source data, 1500 µM
  EN activity, percent of no inhibitor control: 5.3699% and 4.215%
[2]; [Inhibitor] 1500 μM, technical replicates 1-3, Fig. 2b source data, read-out: EN activity, percent of no inhibitor control
  remaining activity at 1500 µM: 4.91%
[3]; 50 μM inhibitor
  Nuclei comet tail length, average (WT = 1): 0.8544
APE1 [4]; 250 µM, Supplementary Fig. 6b, n=3
  Percent APE1 activity, average: 114.2%
APE1 [4]; 250 µM, Supplementary Fig. 6b, replicates 1-3
  Percent APE1 activity, replicates: 123.394% and 115.312% and 103.88%
APE1 [4]; compound at 25 μM, Replicate 1
  APE1 percent activity, Replicate 1: 105.329%
APE1 [4]; compound at 25 μM, Replicate 2
  APE1 percent activity, Replicate 2: 115.007%
APE1 [4]; compound at 25 μM, Replicate 3
  APE1 percent activity, Replicate 3: 106.871%
APE1 [4]; [16]
  APE1 percent activity, average: 109.069%
APE1 [4]
  activity at 25 µM: 109 ± 5.2%
L1 retrotransposition; 1 μM inhibitor
  L1 retrotransposition, average: 17.6477
L1 retrotransposition; 5 μM inhibitor
  L1 retrotransposition, average: 10.1662
L1 retrotransposition; 10 μM inhibitor
  L1 retrotransposition, average: 4.75
L1 retrotransposition; 25 μM inhibitor
  L1 retrotransposition, average: 4.785
L1 retrotransposition; 50 μM inhibitor
  L1 retrotransposition, average: 3.467
L1 retrotransposition; 100 μM inhibitor
  L1 retrotransposition, average: 2.555
L1 retrotransposition; [17]
  Luciferase (retrotransposition), average: 3.467
  Luciferase (retrotransposition), replicates: 3.679 and 3.508 and 3.347 and 3.332
L1 retrotransposition; HeLa cells
  Effect on L1 retrotransposition: some activity in the retrotransposition assay
[5]; 50 μM, senescent cells, SEN control 5.499, 3 replicates
  MMP3 RT-qPCR, average (EP = 1): 3.608
[5]; 50 μM, senescent cells, SEN control 8.256, 3 replicates
  IL1β RT-qPCR, average (EP = 1): 8.197
[5]; 50 μM, senescent cells, SEN control 8.589, 3 replicates
  CCL2 RT-qPCR, average (EP = 1): 4.591
[5]; 50 μM, senescent cells, SEN control 18.65, 3 replicates
  IFNα RT-qPCR, average (EP = 1): 8.607
[5]; 50 μM, senescent cells, SEN control 22.45, 3 replicates
  IL6 RT-qPCR, average (EP = 1): 8.334
[5]; treated 1 month
  Inhibition of inflammation in senescent cells: showed efficacy
[6]
  Inhibition of DNA damage, full-length L1 experiments: best inhibition
[7]
  Binding Detected? (Y/N): N

## Nn1cnn2c(SCC(=O)Cc3ccc(-c4nc5cc(NC(=O)CSc6nnc7n(N)cnn67)ccc5o4)cc3)nnc12 [AD16]
HeLa Tet-On cells; 25 μM
  PrestoBlue (viability), average: 13.01
[2]; [Inhibitor] 0.2 μM, technical replicates 1-3, Fig. 2b source data, 0.2 µM
  EN activity, percent of no inhibitor control: 82.0267% and 71.1107% and 113.489%
[2]; [Inhibitor] 1 μM, technical replicates 1-3, Fig. 2b source data, 1 µM
  EN activity, percent of no inhibitor control: 95.0279% and 119.352% and 94.1929%
[2]; [10]
  EN activity, percent of no inhibitor control: 53.9202% and 53.7999%
[2]; [11]
  remaining activity at 5 µM: 52.1%
[2]; [Inhibitor] 10 μM, technical replicates 1-3, Fig. 2b source data, 10 µM
  EN activity, percent of no inhibitor control: 8.722% and 8.848%
[2]; [Inhibitor] 10 μM, technical replicates 1-3, Fig. 2b source data, read-out: EN activity, percent of no inhibitor control
  remaining activity at 10 µM: 9.85%
[2]; [12]
  EN activity, percent of no inhibitor control: 4.539% and 2.3611%
[2]; [13]
  remaining activity at 25 µM: 3.82%
[2]; [14]
  EN activity, percent of no inhibitor control: 5.5014% and 3.599%
[2]; [Inhibitor] 50 μM, technical replicates 1-3, Fig. 2b source data, read-out: EN activity, percent of no inhibitor control
  remaining activity at 50 µM: 5.19%
[2]; [15]
  EN activity, percent of no inhibitor control: 3.629% and 2.352%
[2]; [Inhibitor] 100 μM, technical replicates 1-3, Fig. 2b source data, read-out: EN activity, percent of no inhibitor control
  remaining activity at 100 µM: 2.31%
[3]; 25 μM inhibitor
  Nuclei comet tail length, average (WT = 1): 0.5888
[8]
  Inhibition of DNA damage, EN domain-only experiments: better efficacy
APE1 [4]; compound at 25 μM, Replicate 1
  APE1 percent activity, Replicate 1: 93.7909%
APE1 [4]; compound at 25 μM, Replicate 2
  APE1 percent activity, Replicate 2: 100.33%
APE1 [4]; compound at 25 μM, Replicate 3
  APE1 percent activity, Replicate 3: 92.4773%
APE1 [4]; [16]
  APE1 percent activity, average: 95.5327%
APE1 [4]
  activity at 25 µM: 95.5 ± 4.2%
L1 retrotransposition; 0.5 μM inhibitor
  L1 retrotransposition, average: 6.997
L1 retrotransposition; 1 μM inhibitor
  L1 retrotransposition, average: 6.79
L1 retrotransposition; 5 μM inhibitor
  L1 retrotransposition, average: 6.3671
L1 retrotransposition; 10 μM inhibitor
  L1 retrotransposition, average: 6.224
L1 retrotransposition; 25 μM inhibitor
  L1 retrotransposition, average: 5.375
L1 retrotransposition; 50 μM inhibitor
  L1 retrotransposition, average: 4.14
L1 retrotransposition; [18]
  Luciferase (retrotransposition), average: 3.568
  Luciferase (retrotransposition), replicates: 3.791 and 3.903 and 3.817 and 2.762
[7]
  Binding Detected? (Y/N): Y
  Binding to the oligonucleotide substrate: detectable binding

## O=C(O)[C@H](CCCCNc1ccc([N+](=O)[O-])cc1[N+](=O)[O-])Nc1ccc([N+](=O)[O-])cc1[N+](=O)[O-] [AD2]
[2]; 2 µM
  EN activity, percent of no inhibitor control: 97.2065% and 90.9835% and 64.2149%
[2]; 10 µM
  EN activity, percent of no inhibitor control: 80.6222% and 62.0824% and 77.8942%
[2]; 25 µM
  EN activity, percent of no inhibitor control: 84.9255% and 87.5391% and 75.5295%
[2]; 50 µM
  EN activity, percent of no inhibitor control: 66.9257% and 62.5652% and 70.9549%
[2]; 100 µM
  EN activity, percent of no inhibitor control: 54.3551% and 40.6401% and 45.1735%
[2]; 500 µM
  EN activity, percent of no inhibitor control: 2.482% and 2.582%
[2]; 1000 µM
  EN activity, percent of no inhibitor control: -0.01768% and 1.001% and 0.6109%
[2]; 2000 µM
  EN activity, percent of no inhibitor control: -4.007% and -5.494% and -4.957%
EN
  Inhibition of EN activity in plasmid nicking assay: full inhibition
APE1 [4]
  APE1 activity (%): 96.2 ± 3.4%
  APE1 percent activity, Replicate 1: 98.5607%
  APE1 percent activity, Replicate 2: 92.3765%
  APE1 percent activity, Replicate 3: 97.7464%
  APE1 percent activity, average: 96.2279%
  Effect on APE1 activity: inhibited; also recorded: inhibition by the weak APE1 inhibitor AD2 was detected
  Percent APE1 activity, average: 66.36%
  Percent APE1 activity, replicates: 67.8305% and 52.9447% and 78.2943%
APE1 [9]
  Ki: 13 µM
L1 retrotransposition
  Effect on L1 retrotransposition: did not significantly impact retrotransposition
[7]
  Binding Detected? (Y/N): N
